Drawing on article PMC9382805, “Design, synthesis, anticancer evaluation and docking studies of novel 2-(1-isonicotinoyl-3-phenyl-1H-pyrazol-4-yl)-3-phenylthiazolidin-4-one derivatives as Aurora-A kinase inhibitors” (BMC Chemistry, 2022), this text covers IC50 and melting point for 21 compounds.

Where two headings read alike, the source gives them in different places.

The test system of data set [1] is HCT116 cell line (colorectal carcinoma). The experiment in a line: MTT cytotoxicity assay, HCT116. In kind it is cell-based, human. For orientation: Tetrazolium assays rely on reduction of a dye to a coloured formazan, in cell work by metabolically active cells.
Protocol: (§1) MTT assay was engaged to evaluate the anticancer activity of synthesized compounds P(1–21) against various human cancer cell lines (breast cancer- MCF-7 and colorectal carcinoma- HCT116) [31–34].
(§2) The MTT test was carried out using the 3-(4,5-dimethyl-2-thiazolyl)-2,5-diphenyl-2H-tetrazolium (MTT) colorimetric test [33, 34]. […] The MTT test based on the reduction of MTT (yellow color) depends on cellular metabolic activities due to H-dependent cellular NAD (P) oxidoreductase enzymes [33]. […] The final product of MTT reduction is a purple formazan that can be easily dissolved in DMSO.
(§3) To test the anticancer activities of the synthesized compounds (selected based on docking studies), we evaluated the antiproliferative activity of compounds P (1–21) against HCT116 and MCF-7 cell lines. All the experiments were repeated at least thrice independently, the 50% inhibitory concentration (IC50) of new hybrids was determined (as the anticancer drug concentration causing a 50% reduction in cell viability) and calculated using a trendline equation.
For data set [2], the system named is MCF-7 cell line (breast cancer). Briefly: MTT cytotoxicity assay, MCF-7. In kind it is cell-based, human.
Protocol: as §1, §2, §3
For data set [3], the target named is recombinant human Aurora-A (Homo sapiens, UniProt O14965). Briefly: biochemical. As to conditions: NADH consumption at 340 nm, 30 °C; read-out: IC50 ± SD, inhibition of Aurora-A kinase.
recombinant human Aurora-A, sequence (O14965 whole entry): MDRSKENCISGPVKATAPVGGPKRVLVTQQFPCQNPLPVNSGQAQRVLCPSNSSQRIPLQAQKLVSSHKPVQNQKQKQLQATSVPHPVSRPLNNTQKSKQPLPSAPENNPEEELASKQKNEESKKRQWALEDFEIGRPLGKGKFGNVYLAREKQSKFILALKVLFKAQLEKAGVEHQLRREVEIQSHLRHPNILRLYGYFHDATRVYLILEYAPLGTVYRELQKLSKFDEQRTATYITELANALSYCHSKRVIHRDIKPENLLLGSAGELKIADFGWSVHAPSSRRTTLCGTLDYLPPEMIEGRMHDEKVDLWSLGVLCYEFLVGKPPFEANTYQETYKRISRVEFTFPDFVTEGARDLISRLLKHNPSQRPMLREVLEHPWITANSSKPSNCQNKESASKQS
Protocol: At 30 °C, dilute enzyme (aurora A), substrates (NADH, NaCl, MgCl2, PEP, LDH, PK, and histones H3), ATP, and inhibitors (selected compounds as per in silico studies) in kinase buffer (HEPES) and this to 96 well plates and incubate for 60 min. Once the ATP substrate was added, the reaction began. With the reaction, NADH was continuously transformed into NAD^+ The activity of Aurora-A can be assayed by measuring the consumption of nicotinamide adenine dinucleotide plus hydrogen (NADH) at 340 nm. Absorbance at 340 nm was continuously recorded for 10 min. Inhibition of recombinant human Aurora-A by inhibitors was initially screened via an enzyme-coupled continuous spectrophotometric assay (Kishore et al., 2008; Aixia et al., 2011; Fancelli D et al., 2006).
Data set [4] concerns HCT 116 and MCF-7 cell lines. Briefly: cells. The note with it: Homo sapiens, read-out: IC50, cytotoxicity, range over two cancer cell lines.
Protocol: as §1, §2, §3
Setting [5] is: Homo sapiens, HCT-116, read-out: IC50 ± SD, HCT-116, inhibition of growth of tumor cell lines.
Setting [6] is: Homo sapiens, MCF7, read-out: IC50 ± SD, MCF-7, inhibition of growth of tumor cell lines.

With `COc1ccc(-c2nn(C(=O)c3ccncc3)cc2C2SCC(=O)N2c2ccc(Cl)cc2)cc1` (stereo not drawn) [Compound P-11, 3-(4-chlorophenyl)-2-(1-isonicotinoyl-3-(4-methoxyphenyl)-1H-pyrazol-4-yl)thiazolidin-4-one], the melting point (in general, the temperature, or range, at which the solid turns liquid) fell in the range of 318 to 320 °C. The concentration for half-maximal inhibition (IC50) (usually the concentration needed to halve the response being measured) in data set [1] (setting [5]) worked out at 2540 ± 200 nM. Further, the concentration for half-maximal inhibition (IC50) in data set [2] (setting [6]) was 2530 ± 190 nM. Moreover, the half-inhibitory concentration (IC50) in data set [3] amounted to 2780 ± 140 nM.

The compound `O=C1CSC(c2cn(C(=O)c3ccncc3)nc2-c2ccc([N+](=O)[O-])cc2)N1c1ccccc1[N+](=O)[O-]` (stereo not drawn) [Compound P-3, 2-(1-isonicotinoyl-3-(4-nitrophenyl)-1H-pyrazol-4-yl)-3-(2-nitrophenyl)thiazolidin-4-one] showed a melting point of 282 to 284 °C. In data set [1] (setting [5]), the concentration for half-maximal inhibition (IC50) is 4470 ± 450 nM. In data set [2] (setting [6]), the 50% inhibitory concentration (IC50) is 4490 ± 420 nM. Moreover, in data set [3], the IC50 was 7250 ± 800 nM.

Compound `O=C1CSC(c2cn(C(=O)c3ccncc3)nc2-c2ccc([N+](=O)[O-])cc2)N1c1cccc(Cl)c1` (stereo not drawn) [Compound P-5, 3-(3-chlorophenyl)-2-(1-isonicotinoyl-3-(4-nitrophenyl)-1H-pyrazol-4-yl)thiazolidin-4-one] registered a melting point of 274 to 276 °C. The IC50 in data set [1] (setting [5]) came out at 3880 ± 160 nM. Besides, the half-maximal inhibitory concentration (IC50) in data set [2] (setting [6]) was 4010 ± 100 nM. Further, the IC50 in data set [3] was found to be 4790 ± 830 nM.

As for `COc1ccc(-c2nn(C(=O)c3ccncc3)cc2C2SCC(=O)N2c2ccccc2[N+](=O)[O-])cc1` (stereo not drawn) [Compound P-10, 2-(1-isonicotinoyl-3-(4-methoxyphenyl)-1H-pyrazol-4-yl)-3-(2-nitrophenyl)thiazolidin-4-one], the melting point was in the range of 322 to 324 °C. In addition, in data set [1] (setting [5]), the IC50 was 780 ± 40 nM. For the same compound, the IC50 in data set [2] (setting [6]) amounted to 1030 ± 110 nM. Besides, the IC50 in data set [3] is 650 ± 90 nM.

For the compound `COc1ccc(-c2nn(C(=O)c3ccncc3)cc2C2SCC(=O)N2c2ccccc2)cc1` (stereo not drawn) [Compound P-8, 2-(1-isonicotinoyl-3-(4-methoxyphenyl)-1H-pyrazol-4-yl)-3-phenylthiazolidin-4-one], the melting point lay in the range of 300 to 302 °C. The IC50 in data set [1] (setting [5]) is 5350 ± 270 nM. For the same compound, the half-inhibitory concentration (IC50) in data set [2] (setting [6]) stood at 6080 ± 240 nM. Further, in data set [3], the IC50 stood at 7320 ± 690 nM.

The compound `COc1ccc(-c2nn(C(=O)c3ccncc3)cc2C2SCC(=O)N2c2ccc([N+](=O)[O-])cc2)cc1` (stereo not drawn) [Compound P-9, 2-(1-isonicotinoyl-3-(4-methoxyphenyl)-1H-pyrazol-4-yl)-3-(4-nitrophenyl)thiazolidin-4-one] had a melting point of 308 to 310 °C. Also, in data set [1] (setting [5]), the IC50 is 1450 ± 180 nM. Further, in data set [2] (setting [6]), the concentration for half-maximal inhibition (IC50) came out at 1620 ± 50 nM. For the same compound, in data set [3], the half-inhibitory concentration (IC50) worked out at 1450 ± 50 nM.

`O=C1CSC(c2cn(C(=O)c3ccncc3)nc2-c2ccc(Br)cc2)N1c1ccccc1` (stereo not drawn) [Compound P-15, 2-(3-(4-bromophenyl)-1-isonicotinoyl-1H-pyrazol-4-yl)-3-phenylthiazolidin-4-one] returned a melting point of 256 to 258 °C. Further, the half-inhibitory concentration (IC50) in data set [1] (setting [5]) is 2180 ± 150 nM. Also, the IC50 in data set [2] (setting [6]) stood at 2340 ± 270 nM. Also, the IC50 in data set [3] worked out at 2100 ± 130 nM.

Take `O=C1CSC(c2cn(C(=O)c3ccncc3)nc2-c2ccc([N+](=O)[O-])cc2)N1c1ccc([N+](=O)[O-])cc1` (stereo not drawn) [Compound P-2, 2-(1-isonicotinoyl-3-(4-nitrophenyl)-1H-pyrazol-4-yl)-3-(4-nitrophenyl)thiazolidin-4-one]: the values for the 50% inhibitory concentration (IC50) in data set [1] (setting [5]), in data set [2] (setting [6]) and in data set [3] were 3520 ± 330 nM, 3260 ± 310 nM and 3570 ± 350 nM, respectively.

The compound `O=C1CSC(c2cn(C(=O)c3ccncc3)nc2-c2ccc([N+](=O)[O-])cc2)N1c1ccc(Cl)cc1` (stereo not drawn) [Compound P-4, 3-(4-chlorophenyl)-2-(1-isonicotinoyl-3-(4-nitrophenyl)-1H-pyrazol-4-yl)thiazolidin-4-one] yielded a melting point of 286 to 288 °C. Besides, the IC50 in data set [1] (setting [5]) was 1350 ± 70 nM. In addition, the IC50 in data set [2] (setting [6]) was 2550 ± 70 nM. Moreover, the concentration for half-maximal inhibition (IC50) in data set [3] is 1330 ± 150 nM.

In the case of `O=C1CSC(c2cn(C(=O)c3ccncc3)nc2-c2ccc([N+](=O)[O-])cc2)N1c1ccccc1` (stereo not drawn) [Compound P-1, 2-(1-isonicotinoyl-3-(4-nitrophenyl)-1H-pyrazol-4-yl)-3-phenylthiazolidin-4-one], the results for the IC50 in data set [1] (setting [5]), in data set [2] (setting [6]) and in data set [3] were 2300 ± 140 nM, 4400 ± 180 nM and 2340 ± 360 nM, respectively.

`COc1ccc(-c2nn(C(=O)c3ccncc3)cc2C2SCC(=O)N2c2cccc(Cl)c2)cc1` (stereo not drawn) [Compound P-12, 3-(3-chlorophenyl)-2-(1-isonicotinoyl-3-(4-methoxyphenyl)-1H-pyrazol-4-yl)thiazolidin-4-one] registered a melting point of 338 to 340 °C. In data set [1] (setting [5]), the IC50 worked out at 4060 ± 380 nM. Also, in data set [2] (setting [6]), the concentration for half-maximal inhibition (IC50) came to 4350 ± 470 nM. Moreover, the IC50 in data set [3] is 5590 ± 370 nM.

With `COc1ccccc1N1C(=O)CSC1c1cn(C(=O)c2ccncc2)nc1-c1ccc(Br)cc1` (stereo not drawn) [Compound P-21], the melting point fell in the range of 260 to 262 °C.

`O=C1CSC(c2cn(C(=O)c3ccncc3)nc2-c2ccc(Br)cc2)N1c1cccc(Cl)c1` (stereo not drawn) [Compound P-19]: the melting point fell in the range of 248 to 250 °C. Besides, the IC50 in data set [1] (setting [5]) stood at 1020 ± 120 nM. Moreover, the IC50 in data set [2] (setting [6]) is 1210 ± 50 nM. For the same compound, the concentration for half-maximal inhibition (IC50) in data set [3] came out at 790 ± 70 nM.

Take `Cc1cc(Nc2cc(N3CCN(C)CC3)nc(Sc3ccc(NC(=O)C4CC4)cc3)n2)[nH]n1` [VX-680, Tozasertib, reference compound]: the 50% inhibitory concentration (IC50) in data set [1] (Homo sapiens, HCT-116, MTT assay, HCT116, read-out: IC50 ± SD, HCT-116, inhibition of growth of tumor cell lines) was determined as 320 ± 50 nM; in data set [1] (MTT assay, HCT116, listed as VX-680 (Tozasertib), read-out: IC50 ± SD, HCT-116, inhibition of growth of tumor cell lines) it was 300 ± 30 nM; in data set [2] (Homo sapiens, MCF7, MTT assay, MCF-7, read-out: IC50 ± SD, MCF-7, inhibition of growth of tumor cell lines) it was 400 ± 30 nM; in data set [2] (MTT assay, MCF-7, listed as VX-680 (Tozasertib), read-out: IC50 ± SD, MCF-7, inhibition of growth of tumor cell lines), 380 ± 20 nM.

Regarding `COc1ccc(N2C(=O)CSC2c2cn(C(=O)c3ccncc3)nc2-c2ccc(Br)cc2)cc1` (stereo not drawn) [Compound P-20, 2-(3-(4-bromophenyl)-1-isonicotinoyl-1H-pyrazol-4-yl)-3-(4-methoxyphenyl) thiazolidin-4-one], the concentration for half-maximal inhibition (IC50) was 420 ± 80 nM in data set [1] (setting [5]), 560 ± 60 nM in data set [2] (setting [6]), 220 ± 80 nM in data set [3] and 390 to 560 nM in data set [4].

On to `O=C1CSC(c2cn(C(=O)c3ccncc3)nc2-c2ccc(Br)cc2)N1c1ccc(Cl)cc1` (stereo not drawn) [Compound P-18, 2-(3-(4-bromophenyl)-1-isonicotinoyl-1H-pyrazol-4-yl)-3-(4-chlorophenyl)thiazolidin-4-one], for which the melting point was 244 to 246 °C. The half-maximal inhibitory concentration (IC50) in data set [1] (setting [5]) is 1520 ± 90 nM. Also, the half-inhibitory concentration (IC50) in data set [2] (setting [6]) worked out at 1770 ± 150 nM. For the same compound, the IC50 in data set [3] is 1620 ± 110 nM.

The compound `COc1ccc(-c2nn(C(=O)c3ccncc3)cc2C2SCC(=O)N2c2ccccc2OC)cc1` (stereo not drawn) [Compound P-14] returned a melting point of 336 to 338 °C.

Take `COc1ccc(N2C(=O)CSC2c2cn(C(=O)c3ccncc3)nc2-c2ccc([N+](=O)[O-])cc2)cc1` (stereo not drawn) [Compound P-6, 2-(1-isonicotinoyl-3-(4-nitrophenyl)-1H-pyrazol-4-yl)-3-(4-methoxyphenyl)thiazolidin-4-one]: the IC50 in data set [1] (setting [5]) was 370 ± 150 nM; in data set [2] (setting [6]) it was 440 ± 60 nM; in data set [3], 180 ± 50 nM; in data set [4], 370 to 440 nM.

On to `COc1ccccc1N1C(=O)CSC1c1cn(C(=O)c2ccncc2)nc1-c1ccc([N+](=O)[O-])cc1` (stereo not drawn) [Compound P-7, 2-(1-isonicotinoyl-3-(4-nitrophenyl)-1H-pyrazol-4-yl)-3-(2-methoxyphenyl)thiazolidin-4-one], for which the melting point lay in the range of 250 to 252 °C. Further, the 50% inhibitory concentration (IC50) in data set [1] (setting [5]) was determined as 620 ± 30 nM. In addition, the IC50 in data set [2] (setting [6]) turned out to be 880 ± 30 nM. Also, the IC50 in data set [3] is 420 ± 120 nM.

As to `O=C1CSC(c2cn(C(=O)c3ccncc3)nc2-c2ccc(Br)cc2)N1c1ccc([N+](=O)[O-])cc1` (stereo not drawn) [Compound P-16, 2-(3-(4-bromophenyl)-1-isonicotinoyl-1H-pyrazol-4-yl)-3-(4-nitrophenyl)thiazolidin-4-one], the melting point was 268 to 270 °C. Also, the IC50 in data set [1] (setting [5]) is 2010 ± 110 nM. The half-inhibitory concentration (IC50) in data set [2] (setting [6]) was 2250 ± 250 nM. Further, the concentration for half-maximal inhibition (IC50) in data set [3] is 2100 ± 150 nM.

In the case of `COc1ccc(-c2nn(C(=O)c3ccncc3)cc2C2SCC(=O)N2c2ccc(OC)cc2)cc1` (stereo not drawn) [Compound P-13, 2-(1-isonicotinoyl-3-(4-methoxyphenyl)-1H-pyrazol-4-yl)-3-(4-methoxyphenyl) thiazolidin-4-one], the results for the concentration for half-maximal inhibition (IC50) in data set [1] (setting [5]), in data set [2] (setting [6]) and in data set [3] were 5870 ± 420 nM, 8210 ± 350 nM and 12400 ± 850 nM, respectively.
